Measurements from publication PMC10135033, “Sulfonamidoboronic Acids as “Cross-Class” Inhibitors of an Expanded-Spectrum Class C Cephalosporinase, ADC-33, and a Class D Carbapenemase, OXA-24/40: Strategic Compound Design to Combat Resistance in Acinetobacter baumannii” (Antibiotics, 2023).
Where two headings read alike, the source gives them in different places.

Legend:
[1] = system: A. baumannii ATCC 17978 native ADC KO, OXA-24 pWH1266; test: Antimicrobial susceptibility testing, broth microdilution; format: cell-based; details: Acinetobacter baumannii
Method: The inhibitory effects of both compounds were tested against ADC-33 and OXA-24/-40 in A. baumannii, their native host. ATCC 17978, with its intrinsic chromosomal ADC knocked out (intrinsic OXA still present), was used in these experiments. In this isolate, the ADC MICs were not lowered by the inhibitors as much as they were against the E. coli background (Table 4).
pWH1266 is a vector that replicates in A. baumannii, and the […] pWH1266 construct was generated as follows. The TEM gene was removed using inverse PCR, and an Xba1 site was engineered into the vector. blaOXA-24/40 and its upstream XerC/XerD were amplified from strain NM55. The amplified gene was cloned into the Xba1 site of the altered pWH1266 vector. The construct was confirmed using PCR and sequencing. Both blaADC-33 pQF1266 and […] pWH1266 were then expressed in A. baumannii ATCC 17978 that had the intrinsic chromosomal ADC gene knocked out.
The chromosomal blaADC-51 gene in ATCC 17978 was deleted and replaced with an apramycin resistance cassette using the recombineering method described by Tucker et al.. Primers used for this deletion were: Del AmpC-apra.For: […]; and Del AmpC-apra.Rev: […]. The correct deletion mutant was confirmed using PCR and sequencing.
(§1) Testing of susceptibility to standard antibiotics was performed with broth microdilution according to CLSI guidelines. MICs for CAZ, CTX, FEP, and IMI were determined using cation-adjusted Mueller–Hinton broth according to CLSI methods, and CR167 or 6b was used at a fixed concentration of 10 mg/L. All MICs were interpreted according to the 2022 Clinical and Laboratory Standards Institute (CLSI) guidelines.

[2] = system: clinical A. baumannii isolate PR462 (OXA-24, OXA-65, ADC-214); test: Antimicrobial susceptibility testing, clinical isolate, broth microdilution; format: cell-based; details: Acinetobacter baumannii, inhibitor at 10 mg/L
Method: (§2) Clinical A. baumannii isolates containing ADC-33 or OXA-24/-40 in combination with various other well-defined β-lactamases were also tested against CR167 and 6b (Table 5).
(§3) The clinical A. baumannii isolates used to test the β-lactamase inhibitors were selected from a previously well-characterized collection in our lab. They were chosen as they had either ADC-33 and/or OXA-24 in combination with other known β-lactamases (for specific combinations, see Table 5).
as §1

[3] = system: clinical A. baumannii isolate PR323 (OXA-24, OXA-65, ADC-218); test: as above; format: cell-based; details: Acinetobacter baumannii
Method: as §2, §3, §1

[4] = system: clinical A. baumannii isolate PR474 (OXA-23, OXA-24, OXA-65, ADC-218); test: as above; format: cell-based; details: Acinetobacter baumannii
Method: as §2, §3, §1

[5] = system: clinical A. baumannii isolate PR328 (OXA-23, OXA-82, ADC-33); test: as above; format: cell-based; details: Acinetobacter baumannii
Method: as §2, §3, §1

[6] = system: clinical A. baumannii isolate PR396 (OXA-82, ADC-33); test: as above; format: cell-based; details: Acinetobacter baumannii, inhibitor at 10 mg/L
Method: as §2, §3, §1

[7] = system: clinical A. baumannii isolate PR378 (OXA-24, OXA-65, TEM-1); test: as above; format: cell-based; details: Acinetobacter baumannii
Method: as §2, §3, §1

[8] = system: clinical A. baumannii isolate PR408 (OXA-24, OXA-71, ADC-212); test: as above; format: cell-based; details: Acinetobacter baumannii
Method: as §2, §3, §1

[9] = biological target: T1, OXA-24/40 (Acinetobacter baumannii, UniProt Q8RLA6); test: Ki determination, competition assay with nitrocefin (NCF) as substrate; format: biochemical
T1 construct: made in house
T1 sequence (Q8RLA6 22-275): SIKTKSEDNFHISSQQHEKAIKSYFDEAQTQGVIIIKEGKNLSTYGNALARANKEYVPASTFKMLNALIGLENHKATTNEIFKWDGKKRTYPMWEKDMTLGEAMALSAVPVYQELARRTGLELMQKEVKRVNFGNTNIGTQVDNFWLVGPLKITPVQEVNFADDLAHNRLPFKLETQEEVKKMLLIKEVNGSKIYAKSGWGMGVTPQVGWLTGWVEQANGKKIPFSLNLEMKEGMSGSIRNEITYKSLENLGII
Method: (§4) The affinity of CR167 for the two different β-lactamases was measured in competition assays using nitrocefin (NCF) as the indicator substrate (Table 1).
(§5) The binding affinity of each of the compounds 6a–e with ADC-33 and with OXA-24/40 was determined after 5 min pre-incubation of boronic acid and the enzyme, using competition assays with nitrocefin (NCF) as the substrate. […] These compounds differ in three structural characteristics: stereochemistry, the presence of the m-carboxylate on the aromatic ring, and the small chain linked to the chiral center. […] Finally, the smaller the steric hindrance is at the R1 position, the higher the affinity is.
(§6) Ki values were determined by using nitrocefin as a reporter substrate and treating the compounds as competitive inhibitors. Steady-state kinetic parameters were determined by combining pure enzyme with nitrocefin in 50 mM NaH2PO4; 25 mM NaHCO3, pH 7.4 (for OXA-24/40); or 50 mM NaH2PO4, pH 7.4 (for ADC-33), at room temperature. Changes in absorbance were measured on a Cary 60 UV−Vis spectrophotometer (Agilent Technologies) and converted to velocity using the change-in-extinction coefficient specific to nitrocefin (ε = 17,400 M^−1·cm^−1 at 482 nm). Initial velocities were fit to the Michaelis–Menten equation, yielding kcat and Km values. Next, the enzyme was challenged with a constant concentration of nitrocefin and increasing amounts of inhibitor. IC50 values were used to calculate Ki values using the Cheng–Prusoff equation as previously described. Specifically, the measurements of the initial velocities were performed with the addition of 100 µM NCF after a 5 min pre-incubation of the enzyme (2 nM) with increasing concentration of the inhibitor [37]. To determine the average velocities (v0), data from three experiments were fit to Equation (1): (1) v0=vu −{vu[I]/IC 50+[I]} where vu represents the NCF uninhibited velocity and IC50 represents the inhibitor concentration that results in a 50% reduction in vu. The Ki value was corrected for the NCF affinity (Km values for both OXA-24/40 and ADC-33) with the Cheng–Prusoff equation (Equation (2)): (2) Ki=IC50/(1+[NCF]/KmNCF)

[10] = biological target: ADC-33 (Acinetobacter baumannii, UniProt A7Y407); test: as above; format: biochemical; details: for Ki: corrected for NCF affinity, 5 min pre-incubation, pH 7.4
Method: as §4, §5, §6

[11] = ATCC17978, read-out: MIC of CAZ with BLI
[12] = ATCC17978, read-out: MIC of CTX with BLI
[13] = ATCC17978, read-out: MIC of FEP with BLI
[14] = ATCC17978, read-out: MIC of IMI with BLI
[15] = inhibitor at 10 mg/L, PR323, read-out: MIC of CAZ with BLI
[16] = inhibitor at 10 mg/L, PR323, read-out: MIC of CTX with BLI
[17] = inhibitor at 10 mg/L, PR474, read-out: MIC of CAZ with BLI
[18] = inhibitor at 10 mg/L, PR474, read-out: MIC of CTX with BLI
[19] = inhibitor at 10 mg/L, PR328, read-out: MIC of CAZ with BLI
[20] = inhibitor at 10 mg/L, PR378, read-out: MIC of CAZ with BLI
[21] = inhibitor at 10 mg/L, PR378, read-out: MIC of CTX with BLI
[22] = inhibitor at 10 mg/L, PR408, read-out: MIC of CAZ with BLI
[23] = inhibitor at 10 mg/L, PR408, read-out: MIC of CTX with BLI

O=C(O)c1cccc(CS(=O)(=O)NCB(O)O)c1 [CR167]
MIC [1, 11]: 8 µg/mL
MIC [1, 12]: 16 µg/mL
MIC [1, 13]: 32 µg/mL
MIC [1, 14]: 128 µg/mL
MIC ([2]; read-out: MIC of CAZ with BLI): 64 µg/mL
MIC ([2]; read-out: MIC of CTX with BLI): 256 µg/mL
MIC ([2]; read-out: MIC of IMI with BLI): 64 µg/mL
MIC ([3]; read-out: MIC of IMI with BLI): 128 µg/mL
MIC [3, 15]: 4100 µg/mL
MIC [3, 16]: 2050 µg/mL
MIC ([4]; read-out: MIC of IMI with BLI): 128 µg/mL
MIC [4, 17]: 4100 µg/mL
MIC [4, 18]: 2050 µg/mL
MIC ([5]; read-out: MIC of CTX with BLI): 128 µg/mL
MIC ([5]; read-out: MIC of IMI with BLI): 128 µg/mL
MIC [5, 19]: 1020 µg/mL
MIC ([6]; read-out: MIC of CAZ with BLI): 1020 µg/mL
MIC ([6]; read-out: MIC of CTX with BLI): 256 µg/mL
MIC ([6]; read-out: MIC of IMI with BLI): 64 µg/mL
MIC ([7]; read-out: MIC of IMI with BLI): 128 µg/mL
MIC [7, 20]: 32 µg/mL
MIC [7, 21]: 64 µg/mL
MIC ([8]; read-out: MIC of IMI with BLI): 128 µg/mL
MIC [8, 22]: 512 µg/mL
MIC [8, 23]: 1020 µg/mL
Ki [9]: 4400 ± 500 nM
Ki [10]: 57 ± 15 nM

C[C@@H](NS(=O)(=O)Cc1cccc(C(=O)O)c1)B(O)O [6b]
MIC [1, 11]: 8 µg/mL
MIC [1, 12]: 16 µg/mL
MIC [1, 13]: 32 µg/mL
MIC [1, 14]: 128 µg/mL
MIC ([2]; read-out: MIC of CAZ with BLI): 256 µg/mL
MIC ([2]; read-out: MIC of CTX with BLI): 512 µg/mL
MIC ([2]; read-out: MIC of IMI with BLI): 64 µg/mL
MIC ([3]; read-out: MIC of IMI with BLI): 128 µg/mL
MIC [3, 15]: 4100 µg/mL
MIC [3, 16]: 2050 µg/mL
MIC ([4]; read-out: MIC of IMI with BLI): 128 µg/mL
MIC [4, 17]: 4100 µg/mL
MIC [4, 18]: 2050 µg/mL
MIC ([5]; read-out: MIC of IMI with BLI): 128 µg/mL
MIC [5, 19]: 2050 µg/mL
MIC ([5]; inhibitor at 10 mg/L, PR328, read-out: MIC of CTX with BLI): 256 µg/mL
MIC ([6]; read-out: MIC of CAZ with BLI): 2050 µg/mL
MIC ([6]; read-out: MIC of CTX with BLI): 512 µg/mL
MIC ([6]; read-out: MIC of IMI with BLI): 64 µg/mL
MIC [7, 20]: 32 µg/mL
MIC [7, 21]: 64 µg/mL
MIC ([7]; inhibitor at 10 mg/L, PR378, read-out: MIC of IMI with BLI): 256 µg/mL
MIC ([8]; read-out: MIC of IMI with BLI): 128 µg/mL
MIC [8, 22]: 512 µg/mL
MIC [8, 23]: 1020 µg/mL
Ki [9]: 5200 ± 500 nM
fold higher affinity than compound 6a for OXA-24/40 ([9]; ratio of Ki, 6b vs 6a): 120 fold
fold more potent than 6d, OXA-24/40 ([9]; ratio of Ki, 6b vs 6d): 60 fold
Ki [10]: 790 ± 200 nM
fold more potent than 6d, ADC-33 ([10]; ratio of Ki, 6b vs 6d): 28 fold
